# pIC50: −log10 of the molar value.
# Experiments:
# [1] = tested on: dermatofibrosarcoma protruberans cell cultures; conditions: Cancer Research 2001; cited from earlier work
# [2] = tested on: human glioblastoma lines U343 and U87; conditions: U343 and U87 injected into the brains of nude mice; Cancer Research 2000; cited from earlier work
# PDGF receptor kinase = conditions: Nature Reviews 2002; Cancer Research 1996; cited from earlier work
# KDR tyrosine kinase = target: T1, KDR tyrosine kinase (Homo sapiens, UniProt P35968); experiment: In vitro enzyme assay (ELISA), Test (a), KDR; assay type: biochemical; conditions: ATP 8 μM, read-out: IC50 versus KDR tyrosine kinase
# T1 construct: a DNA fragment encoding most of the cytoplasmic domain, commencing with methionine 806 and including the termination codon; made in house; host or cells: Sf9 insect cells (recombinant baculovirus)
# T1 sequence (P35968 786-1356 limits assumed): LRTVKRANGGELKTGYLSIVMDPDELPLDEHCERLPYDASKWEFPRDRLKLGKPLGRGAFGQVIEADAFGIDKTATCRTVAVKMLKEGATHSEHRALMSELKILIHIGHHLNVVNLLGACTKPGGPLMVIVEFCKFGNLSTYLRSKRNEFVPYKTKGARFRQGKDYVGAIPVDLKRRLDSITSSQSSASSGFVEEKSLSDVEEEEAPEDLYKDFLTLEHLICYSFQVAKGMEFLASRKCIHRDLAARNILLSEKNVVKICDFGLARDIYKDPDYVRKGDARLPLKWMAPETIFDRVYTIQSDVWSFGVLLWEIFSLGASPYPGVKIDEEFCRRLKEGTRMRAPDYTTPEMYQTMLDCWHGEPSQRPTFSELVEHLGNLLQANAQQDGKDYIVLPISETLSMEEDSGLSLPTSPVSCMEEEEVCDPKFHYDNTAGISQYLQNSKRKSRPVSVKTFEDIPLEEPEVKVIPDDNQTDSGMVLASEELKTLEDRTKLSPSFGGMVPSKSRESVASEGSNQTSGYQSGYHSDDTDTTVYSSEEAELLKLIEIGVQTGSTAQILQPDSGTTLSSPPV
# Method: (§1) The ability of test compounds to inhibit the phosphorylation of a tyrosine containing polypeptide substrate by the tyrosine kinase enzymes PDGFRα, PDGFRβ and KDR was assessed using conventional ELISA assays. DNA encoding the PDGFRα, PDGFRβ or KDR receptor cytoplasmic domains may be obtained by total gene synthesis (International Biotechnology Lab., 1987, 5(3), 19-25) or by cloning. The DNA fragments may be expressed in a suitable expression system to obtain polypeptide with tyrosine kinase activity. For example, PDGFRα, PDGFRβ and KDR receptor cytoplasmic domains, obtained by expression of recombinant protein in insect cells, can be shown to display intrinsic tyrosine kinase activity. In the case of the VEGF receptor KDR (Genbank Accession No. L04947), a DNA fragment encoding most of the cytoplasmic domain, commencing with methionine 806 and including the termination codon may be cloned into a baculovirus transplacement vector [for example pAcYM1 (see The Baculovirus Expression System: A Laboratory Guide, L. A. King and R. D. Possee, Chapman and Hall, 1992) or pAc360 or pBlueBacHis (available from Invitrogen Corporation)]. This recombinant construct may be co-transfected into insect cells [for example Spodoptera frugiperda 21(Sf21) or Spodoptera frugiperda 9(Sf9)] with viral DNA (for example Pharmingen BaculoGold) to prepare recombinant baculovirus. Details of the methods for the assembly of recombinant DNA molecules and the preparation and use of recombinant baculovirus can be found in standard texts, for example Sambrook et al., 1989, Molecular cloning—A Laboratory Manual, 2nd edition, Cold Spring Harbour Laboratory Press and O'Reilly et al., 1992, Baculovirus Expression Vectors—A Laboratory Manual, W. H. Freeman and Co, New York).
# For expression, Sf9 cells were infected with plaque-pure KDR recombinant virus and harvested 48 hours later. […]
# PDGFRβ tyrosine kinase = target: T2, PDGFRβ tyrosine kinase (Homo sapiens, UniProt P09619); experiment: In vitro enzyme assay (ELISA), Test (a), PDGFRβ; assay type: biochemical; conditions: ATP 2.8 μM, read-out: IC50 versus PDGFRβ tyrosine kinase
# T2 construct: PDGFRα, PDGFRβ and KDR receptor cytoplasmic domains, obtained by expression of recombinant protein in insect cells; purchased Upstate Biotechnology Inc. 14-463; host or cells: Sf9 insect cells
# T2 sequence (P09619 554-1106 limits assumed): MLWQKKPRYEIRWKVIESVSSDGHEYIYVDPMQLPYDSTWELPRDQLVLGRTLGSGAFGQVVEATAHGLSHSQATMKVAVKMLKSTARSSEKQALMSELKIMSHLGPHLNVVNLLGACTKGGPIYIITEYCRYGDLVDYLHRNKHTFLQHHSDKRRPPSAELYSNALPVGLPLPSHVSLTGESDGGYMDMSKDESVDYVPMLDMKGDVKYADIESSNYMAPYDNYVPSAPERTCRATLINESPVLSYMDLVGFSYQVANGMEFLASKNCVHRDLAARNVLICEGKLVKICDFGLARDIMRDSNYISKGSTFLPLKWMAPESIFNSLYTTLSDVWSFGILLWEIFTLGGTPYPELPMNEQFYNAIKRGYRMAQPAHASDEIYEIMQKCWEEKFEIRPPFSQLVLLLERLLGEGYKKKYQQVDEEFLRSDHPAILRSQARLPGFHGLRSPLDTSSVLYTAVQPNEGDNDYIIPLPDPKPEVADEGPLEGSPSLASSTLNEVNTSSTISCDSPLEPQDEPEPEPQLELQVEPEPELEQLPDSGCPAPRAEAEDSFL
# Method: as §1, with “Details of the methods for the assembly of recombinant DNA molecules and the preparation and use of recombinant baculovirus can be found in standard texts, for example Sambrook et al., 1989, Molecular cloning—A Laboratory Manual, 2nd edition, Cold Spring Harbour Laboratory Press and O'Reilly et al., 1992, Baculovirus Expression Vectors—A Laboratory Manual, W. H. Freeman and Co, New York).” left out
# PDGFRα tyrosine kinase = target: T3, PDGFRα tyrosine kinase (Homo sapiens, UniProt P16234); experiment: In vitro enzyme assay (ELISA), Test (a), PDGFRα; assay type: biochemical; conditions: ATP 14 μM, read-out: IC50 versus PDGFRα tyrosine kinase
# T3 construct: PDGFRα, PDGFRβ and KDR receptor cytoplasmic domains, obtained by expression of recombinant protein in insect cells; purchased Upstate Biotechnology Inc. 14-467; host or cells: Sf9 insect cells
# T3 sequence (P16234 550-1089 limits assumed): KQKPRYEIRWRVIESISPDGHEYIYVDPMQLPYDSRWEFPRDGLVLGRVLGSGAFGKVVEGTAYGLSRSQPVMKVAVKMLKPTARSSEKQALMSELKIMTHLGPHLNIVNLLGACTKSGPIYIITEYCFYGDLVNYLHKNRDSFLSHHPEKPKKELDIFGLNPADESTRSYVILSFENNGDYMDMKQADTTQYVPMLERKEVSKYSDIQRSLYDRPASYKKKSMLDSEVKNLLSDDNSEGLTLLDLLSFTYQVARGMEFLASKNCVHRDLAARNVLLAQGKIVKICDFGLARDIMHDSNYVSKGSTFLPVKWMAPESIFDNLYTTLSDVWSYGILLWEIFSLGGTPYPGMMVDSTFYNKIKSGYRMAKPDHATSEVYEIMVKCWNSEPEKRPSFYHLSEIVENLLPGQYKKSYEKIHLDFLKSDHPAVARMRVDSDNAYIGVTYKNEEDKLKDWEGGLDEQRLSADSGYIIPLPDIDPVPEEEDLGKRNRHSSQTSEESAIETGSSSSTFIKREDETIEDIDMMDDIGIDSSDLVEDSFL
# Method: as §1, with “Details of the methods for the assembly of recombinant DNA molecules and the preparation and use of recombinant baculovirus can be found in standard texts, for example Sambrook et al., 1989, Molecular cloning—A Laboratory Manual, 2nd edition, Cold Spring Harbour Laboratory Press and O'Reilly et al., 1992, Baculovirus Expression Vectors—A Laboratory Manual, W. H. Freeman and Co, New York).” left out
# phospho-Tyr751 PDGFRβ = target: T4, phospho-Tyr751 PDGFRβ (Homo sapiens, UniProt P09619); experiment: In vitro phospho-Tyr751 PDGFRβ ELISA assay in MG63 osteosarcoma cells, Test (b); assay type: cell-based; conditions: MG63 cells stimulated with PDGFBB, read-out: IC50 versus phospho-Tyr751 PDGFRβ
# T4 construct: phosphorylation of PDGFR expressed on MG63 osteosarcoma cells; endogenous in cells; host or cells: MG63 osteosarcoma cells
# T4 sequence (P09619 33-1106): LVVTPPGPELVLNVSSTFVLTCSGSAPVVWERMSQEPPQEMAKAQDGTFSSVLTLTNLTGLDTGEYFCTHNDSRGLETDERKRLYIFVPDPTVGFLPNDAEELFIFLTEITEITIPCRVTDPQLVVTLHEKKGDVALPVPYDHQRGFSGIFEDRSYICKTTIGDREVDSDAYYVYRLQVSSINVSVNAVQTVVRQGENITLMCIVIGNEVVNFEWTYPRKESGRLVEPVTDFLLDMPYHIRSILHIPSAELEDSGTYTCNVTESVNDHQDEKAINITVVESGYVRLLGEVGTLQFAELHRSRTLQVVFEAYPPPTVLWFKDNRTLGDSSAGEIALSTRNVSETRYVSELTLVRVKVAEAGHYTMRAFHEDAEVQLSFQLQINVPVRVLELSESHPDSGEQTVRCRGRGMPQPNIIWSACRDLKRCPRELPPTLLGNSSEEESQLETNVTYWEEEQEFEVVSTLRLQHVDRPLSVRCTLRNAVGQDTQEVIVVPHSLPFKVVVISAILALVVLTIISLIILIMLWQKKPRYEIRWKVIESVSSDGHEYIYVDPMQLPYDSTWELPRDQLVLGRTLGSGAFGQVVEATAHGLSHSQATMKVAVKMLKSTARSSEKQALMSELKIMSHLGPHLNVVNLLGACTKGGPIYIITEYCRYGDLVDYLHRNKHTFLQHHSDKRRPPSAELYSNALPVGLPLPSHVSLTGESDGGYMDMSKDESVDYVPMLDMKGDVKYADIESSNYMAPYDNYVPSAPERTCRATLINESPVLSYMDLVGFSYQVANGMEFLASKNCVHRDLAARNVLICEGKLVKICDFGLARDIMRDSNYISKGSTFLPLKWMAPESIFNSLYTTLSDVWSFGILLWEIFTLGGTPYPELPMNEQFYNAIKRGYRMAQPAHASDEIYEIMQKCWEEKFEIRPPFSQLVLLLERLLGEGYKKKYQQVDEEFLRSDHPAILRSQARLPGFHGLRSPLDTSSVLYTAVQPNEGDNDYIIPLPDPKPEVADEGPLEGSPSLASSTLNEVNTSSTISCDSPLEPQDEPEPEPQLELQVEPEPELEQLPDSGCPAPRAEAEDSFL
# Method: This assay uses a conventional ELISA method to determine the ability of test compounds to inhibit phosphorylation of tyrosine in PDGFRβ.
# An MG63 osteosarcoma cell line [American Type Culture Collection (ATCC) CCL 1427] was routinely maintained at 37° C. with 7.5% CO2 in Dulbecco's modified Eagle's growth medium (DMEM; Sigma-Aldrich; Catalogue No. D6546) containing 10% foetal calf serum (FCS; Sigma-Aldrich; Catalogue No. F7524) and 2 mM L-glutamine (Invitrogen Ltd., Paisley, UK; Catalogue No. 25030-024).
# For the assay, the cells were detached from the culture flask using a trypsin/ethylenediaminetetraacetic acid (EDTA) mixture (Invitrogen Ltd.; Catalogue No. 15400-054) and resuspended in test media comprising DMEM without phenol red (Sigma-1-Aldrich; Catalogue No. D5921) containing 1% charcoal-stripped-foetal calf serum (FCS) (Sigma-Aldrich; Catalogue No. F7524, stripped by incubation with dextran-coated activated charcoal at 55° C. for 30 minutes with continuous stirring followed by removal of the charcoal by centrifugation and filter sterilisation) and 2 mM L-glutamine (Invitrogen Ltd., Catalogue No. 25030-024) to give 6×10^4 cells per ml. […]
pIC50 (KDR tyrosine kinase),pIC50 (PDGFRβ tyrosine kinase),pIC50 (PDGFRα tyrosine kinase),pIC50 (phospho-Tyr751 PDGFRβ),SMILES,in vivo growth of dermatofibrosarcoma protruberans cell cultures [1],growth of glioblastoma tumours [2],inhibition of PDGF receptor kinase activity (PDGF receptor kinase)
–,–,–,–,Cc1ccc(NC(=O)c2ccc(CN3CCN(C)CC3)cc2)cc1Nc1nccc(-c2cccnc2)n1 [imatinib],inhibits the in vivo growth,inhibits the growth,inhibit PDGF receptor kinase activity
~7.52,~9.30,~8.15,–,"COc1cc2ncnc(Oc3cnn(CC(=O)Nc4ccc5c(c4)OCO5)c3)c2cc1OC [Example 1, N-(3,4-methylenedioxyphenyl)-2-[4-(6,7-dimethoxyquinazolin-4-yloxy)pyrazol-1-yl]acetamide]",–,–,–
~8.70,–,–,~9.00,"COc1cc2ncnc(Oc3cnn(CC(=O)Nc4ccc5c(c4)NCC5)c3)c2cc1OC [Example 40, N-(6-indolinyl)-2-[4-(6,7-dimethoxyquinazolin-4-yloxy)pyrazol-1-yl]acetamide]",–,–,–

# From patent US20090036474A1, “Quinazoline derivatives for use against cancer” (priority 2004, published 2009)
